Experimental data taken from US20040157738A1, “Novel oxygen containing fused cyclic derivatives and herbicidal, desiccant and defoliate compositions containing them” (ISHIHARA SANGYO KAISHA, LTD., priority 2003, published 2004).

Assays:
Type in all cases: in vivo
[1] = tested on: barnyardgrass (Echinochloa crus-galli L.): ECHCC; test: Test Example 1: pre-emergence herbicidal activity (growth controlling degree); settings: 20th to 21st day after application
Source text: (§1) Upland field soil was put into a 1/170,000 ha pot, and seeds of various plants [1. barnyardgrass (Echinochloa crus-galli L.): ECHCC, 2. crabgrass (Digitaria sanguinalis L.): DIGSA, 3. green foxtail (Setaria viridis L.): SETVI, 4. redroot pigweed (Amaranthus retroflexus L.): AMARE, 5. prickly sida (Sida spinosa L.): SIDSP, 6. velvetleaf (Abutilon theophrasti): ABUTH, 7. common cocklebur (Xanthium strumarium L.): XANST, 8. rice (Oryza sativa L.): ORYSA, 9. wheat (Triticum aestivum L.): TRZAX, 10. corn (Zea mays L.): ZEAMX, 11. soybean (Glycine max Merr.): GLXMA] were sown. Then, one day after the sowing, a wettable powder or emulsifiable concentrate having the compound of the present invention formulated in accordance with a usual formulation method, was weighed so that the active ingredient would be a predetermined amount, and diluted with water in an amount of 500 L/ha. The herbicide adjusted was applied by a small size sprayer for pre-emergence treatment. On the 20th to 21st day after the application of the herbicide, the growth of the respective plants was visually observed, and the herbicidal effects were evaluated by growth controlling degrees (%) ranging from 0 (equivalent to the untreated control) to 100 (complete kill), whereby the results shown in Table 11, were obtained. Compound Nos. in Table 11 correspond to Compound Nos. in Table 1 to 7 given hereinbefore.

[2] = tested on: common cocklebur (Xanthium strumarium L.): XANST; test: as above; settings: 20th to 21st day after application
Source text: as §1

[3] = tested on: corn (Zea mays L.): ZEAMX; test: as above; settings: 20th to 21st day after application
Source text: as §1

[4] = tested on: crabgrass (Digitaria sanguinalis L.): DIGSA; test: as above; settings: 20th to 21st day after application
Source text: as §1

[5] = tested on: green foxtail (Setaria viridis L.): SETVI; test: as above; settings: 20th to 21st day after application
Source text: as §1

[6] = tested on: prickly sida (Sida spinosa L.): SIDSP; test: as above; settings: 20th to 21st day after application
Source text: as §1

[7] = tested on: redroot pigweed (Amaranthus retroflexus L.): AMARE; test: as above; settings: 20th to 21st day after application
Source text: as §1

[8] = tested on: rice (Oryza sativa L.): ORYSA; test: as above; settings: 20th to 21st day after application
Source text: as §1

[9] = tested on: soybean (Glycine max Merr.): GLXMA; test: as above; settings: 20th to 21st day after application
Source text: as §1

[10] = tested on: velvetleaf (Abutilon theophrasti): ABUTH; test: as above; settings: 20th to 21st day after application
Source text: as §1

[11] = tested on: barnyardgrass (Echinochloa crus-galli L.), ECHCG; test: Test Example 2: post-emergence (foliage treatment) herbicidal activity (growth controlling degree); settings: Echinochloa crus-galli, 504 h, 1.8-2.4 leaf stage; for pest or weed control at 63 g/ha: 63 g a.i./ha; for pest or weed control at 31 g/ha: 31 g a.i./ha
Source text: (§2) Upland field soil was put into a 1/170,000 ha pot, and seeds of various plants were sown. Then, when the plants reached predetermined leaf stages [I. barnyardgrass (Echinochloa crus-galli L.), ECHCG: 1.8-2.4 leaf stage, 2. crabgrass (Digitaria sanguinalis L.), DIGSA: 1.5-2.2 leaf stage, 3. green foxtail (Setaria viridis L.), SETVI: 1.7-2.5 leaf stage, 4. redroot pigweed (Amaranthus retroflexus L.), AMARE: 0.1-0.3 leaf stage, 5. prickly sida (Sida spinosa L.), SIDSP: 0.3-0.5 leaf stage, 6. velvetleaf (Abutilon theophrasti), ABUTH: 0.3-0.4 leaf stage, 7. common cocklebur (Xanthium strumarium L.), XANST: 0.2-0.6 leaf stage, 8. rice (Oryza sativa L.), ORYSA: 1.6-2.2 leaf stage, 9. wheat (Triticum aestivum L.), TRZAX: 2.8 leaf stage, 10. corn (Zea mays L.), ZEAMX: 2.2-2.5 leaf stage, 11. soybean (Glycine max Merr.), GLXMA: 0.2-0.3 leaf stage], a wettable powder or emulsifiable concentrate having the compound of the present invention formulated in accordance with a usual formulation method, was weighed so that the active ingredient would be a predetermined amount, and diluted with water in an amount of 500 L/ha. To the diluted solution, 0.1%(v/v) of an agricultural spreader was added. The herbicide adjusted was applied by a small size sprayer for foliage treatment. On the […] day after the application of the herbicide, the growth of the respective plants was visually observed, and the herbicidal effects were evaluated by growth controlling degrees (%) ranging from 0 (equivalent to the untreated control) to 100 (complete kill), whereby the results shown in Table 12, were obtained. Compound Nos. in Table 12 correspond to Compound Nos. in Table 1 to 7 given hereinbefore.

[12] = tested on: common cocklebur (Xanthium strumarium L.), XANST; test: as above; settings: Xanthium strumarium, 504 h, 0.2-0.6 leaf stage; for pest or weed control at 63 g/ha: 63 g a.i./ha; for pest or weed control at 31 g/ha: 31 g a.i./ha
Source text: as §2

[13] = tested on: corn (Zea mays L.), ZEAMX; test: as above; settings: Zea mays, 504 h, 2.2-2.5 leaf stage; for plant injury at 63 g/ha: 63 g a.i./ha; for plant injury at 31 g/ha: 31 g a.i./ha
Source text: as §2

[14] = tested on: crabgrass (Digitaria sanguinalis L.), DIGSA; test: as above; settings: Digitaria sanguinalis, 504 h, 1.5-2.2 leaf stage, read-out: growth controlling degree, DIGSP; for pest or weed control at 63 g/ha: 63 g a.i./ha; for pest or weed control at 31 g/ha: 31 g a.i./ha
Source text: as §2

[15] = tested on: green foxtail (Setaria viridis L.), SETVI; test: as above; settings: Setaria viridis, 504 h, 1.7-2.5 leaf stage; for pest or weed control at 63 g/ha: 63 g a.i./ha; for pest or weed control at 31 g/ha: 31 g a.i./ha
Source text: as §2

[16] = tested on: prickly sida (Sida spinosa L.), SIDSP; test: as above; settings: Sida spinosa, 504 h, 0.3-0.5 leaf stage; for pest or weed control at 63 g/ha: 63 g a.i./ha; for pest or weed control at 31 g/ha: 31 g a.i./ha
Source text: as §2

[17] = tested on: redroot pigweed (Amaranthus retroflexus L.), AMARE; test: as above; settings: 0.1-0.3 leaf stage
Source text: as §2

[18] = tested on: rice (Oryza sativa L.), ORYSA; test: as above; settings: Oryza sativa, 504 h, 1.6-2.2 leaf stage; for plant injury at 63 g/ha: 63 g a.i./ha; for plant injury at 31 g/ha: 31 g a.i./ha
Source text: as §2

[19] = tested on: soybean (Glycine max Merr.), GLXMA; test: as above; settings: Glycine max, 504 h, 0.2-0.3 leaf stage; for pest or weed control at 63 g/ha: 63 g a.i./ha; for pest or weed control at 31 g/ha: 31 g a.i./ha
Source text: as §2

[20] = tested on: velvetleaf (Abutilon theophrasti), ABUTH; test: as above; settings: Abutilon theophrasti, 504 h, 0.3-0.4 leaf stage; for pest or weed control at 63 g/ha: 63 g a.i./ha; for pest or weed control at 31 g/ha: 31 g a.i./ha
Source text: as §2

SMILES | pest or weed control at 63 g/ha [11] | pest or weed control at 63 g/ha [12] | plant injury at 63 g/ha [13] | pest or weed control at 63 g/ha [14] | pest or weed control at 63 g/ha [15] | pest or weed control at 63 g/ha [16] | plant injury at 63 g/ha [18] | pest or weed control at 63 g/ha [19] | pest or weed control at 63 g/ha [20] | growth controlling degree, ECHCG ([1]; 250 g a.i./ha) | growth controlling degree, XANST ([2]; 250 g a.i./ha) | growth controlling degree, ZEAMX ([3]; 250 g a.i./ha) | growth controlling degree, DIGSP ([4]; 250 g a.i./ha) | growth controlling degree, SETVI ([5]; 250 g a.i./ha) | growth controlling degree, SIDSP ([6]; 250 g a.i./ha) | growth controlling degree, AMARE ([7]; 250 g a.i./ha) | growth controlling degree, ORYSA ([8]; 250 g a.i./ha) | growth controlling degree, GLXMA ([9]; 250 g a.i./ha) | growth controlling degree, ABUTH ([10]; 250 g a.i./ha) | pest or weed control at 31 g/ha [11] | other results
Cn1nc(-c2c(F)cc(Cl)c3c2CCCO3)c(Cl)c1OC(F)F [Compound 1-33, 4-chloro-3-(8-chloro-6-fluoro-3,4-dihydro-2H-1-benzopyran-5-yl)-5-(difluoromethoxy)-1-methyl-1H-pyrazole] | 100% | 100% | 100% | 100% | 100% | 100% | 98% | 100% | 100% | – | – | – | – | – | – | – | – | – | – | – | growth controlling degree, ECHCG ([1]; 125 g a.i./ha): 100%; growth controlling degree, XANST ([2]; 125 g a.i./ha): 70%; growth controlling degree, ZEAMX ([3]; 125 g a.i./ha): 100%; growth controlling degree, DIGSP ([4]; 125 g a.i./ha): 100%; growth controlling degree, SETVI ([5]; 125 g a.i./ha): 100%; growth controlling degree, SIDSP ([6]; 125 g a.i./ha): 100%; growth controlling degree, AMARE ([7]; 125 g a.i./ha): 100%; growth controlling degree, ORYSA ([8]; 125 g a.i./ha): 70%; growth controlling degree, GLXMA ([9]; 125 g a.i./ha): 40%; growth controlling degree, ABUTH ([10]; 125 g a.i./ha): 100%; growth controlling degree, AMARE ([17]; 63 g a.i./ha): 100%
Fc1cc(Cl)c2c(c1-c1ncc(C(F)(F)F)cc1Cl)CCCO2 [Compound 7-2, 3-chloro-2-(8-chloro-6-fluoro-3,4-dihydro-2H-1-benzopyran-5-yl)-5-(trifluoromethyl)-pyridine] | 80% | 70% | 90% | 95% | 100% | 100% | 60% | 60% | 100% | 100% | 50% | 60% | 100% | 100% | 100% | 100% | 50% | 50% | 100% | – | –
CC1CCc2c(c(Cl)cc(F)c2-c2nn(C)c(C(F)(F)F)c2Cl)O1 (stereo not shown) [Compound 1-8] | – | – | – | – | – | – | – | – | – | 50% | 10% | 10% | 98% | 95% | 98% | 100% | 20% | 10% | 100% | 0% | pest or weed control at 31 g/ha [12]: 70%; plant injury at 31 g/ha [13]: 50%; pest or weed control at 31 g/ha [14]: 10%; pest or weed control at 31 g/ha [15]: 30%; pest or weed control at 31 g/ha [16]: 80%; growth controlling degree, AMARE ([17]; 31 g a.i./ha): 95%; plant injury at 31 g/ha [18]: 40%; pest or weed control at 31 g/ha [19]: 40%; pest or weed control at 31 g/ha [20]: 100%
Fc1cc(Cl)c2c(c1-c1nn3c(c1Cl)CCCC3)CCCO2 [Compound 1-79, 3-chloro-2-(8-chloro-6-fluoro-3,4-dihydro-2H-1-benzopyran-5-yl)-4,5,6,7-tetrahydro-pyrazolo[1,5-a]pyridine] | – | – | – | – | – | – | – | – | – | 100% | – | 10% | – | – | 80% | 100% | 30% | 30% | 60% | 95% | pest or weed control at 31 g/ha [12]: 100%; plant injury at 31 g/ha [13]: 50%; pest or weed control at 31 g/ha [14]: 40%; pest or weed control at 31 g/ha [15]: 100%; pest or weed control at 31 g/ha [16]: 98%; growth controlling degree, AMARE ([17]; 31 g a.i./ha): 90%; plant injury at 31 g/ha [18]: 50%; pest or weed control at 31 g/ha [19]: 70%; pest or weed control at 31 g/ha [20]: 100%
